Source: patent US9365583B2, “Substituted pyrazoles and uses thereof” (Genentech, Inc., priority 2013, dated 2016)

target: T1, N-terminally GST-tagged DLK (catalytic domain amino acid 1-520) (Homo sapiens, UniProt Q12852); assay: DLK TR-FRET inhibition assay; format: biochemical; conditions: 5 nM GST-DLK, 40 nM HIS-MKK4 K131M substrate, 30 μM ATP, 60 minutes at ambient temperature
T1 construct: N-terminally GST-tagged DLK (catalytic domain amino acid 1-520); purchased Carna Bioscience
T1 sequence (Q12852 1-520): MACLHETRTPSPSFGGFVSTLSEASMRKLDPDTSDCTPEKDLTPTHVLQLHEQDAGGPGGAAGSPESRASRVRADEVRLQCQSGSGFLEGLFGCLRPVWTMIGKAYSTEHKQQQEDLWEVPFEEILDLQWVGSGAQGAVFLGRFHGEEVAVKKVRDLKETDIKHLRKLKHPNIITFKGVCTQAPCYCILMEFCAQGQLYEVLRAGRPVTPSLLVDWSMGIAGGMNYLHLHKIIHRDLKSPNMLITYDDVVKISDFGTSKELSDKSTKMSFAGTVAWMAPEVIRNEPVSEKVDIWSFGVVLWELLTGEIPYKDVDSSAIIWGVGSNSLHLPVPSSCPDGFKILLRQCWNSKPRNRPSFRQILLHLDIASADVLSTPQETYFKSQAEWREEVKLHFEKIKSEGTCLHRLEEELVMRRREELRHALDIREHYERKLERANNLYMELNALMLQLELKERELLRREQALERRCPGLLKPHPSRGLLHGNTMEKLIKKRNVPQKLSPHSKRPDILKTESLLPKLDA
Procedure, shortened: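 5 nM GST-DLK (aa 1-520), 40 nM HIS-MKK4 K131M and 30 μM ATP reacted 60 min at ambient temperature in HEPES pH 7.5 buffer with 10 mM MgCl2, compound 1:3 serially diluted from 20 uM. TR-FRET detection of phospho-MKK4 used Eu-cryptate anti-phospho-MKK4 plus D2 anti-HIS, read after 3 h (665/615 nm).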

Structure (SMILES) | Ki [nM]
CO[C@H]1CCN([C@@H]2C[C@@H]3[C@H](C2)[C@H]3c2cc(-c3cnc(N)c(C(F)(F)F)c3)nn2CC(F)F)C1 [compound 150, 5-(1-(2,2-difluoroethyl)-5-((1R,3s,5S,6S)-3-((S)-3-methoxy-pyrrolidin-1-yl)bicyclo[3.1.0]hexan-6-yl)-1H-pyrazol-3-yl)-3-(trifluoro-methyl)pyridin-2-amine] | 3.6
CC(C)n1nc(-c2cnc(N)c(C(F)(F)F)c2)cc1[C@H]1[C@@H]2C[C@@H](n3ccnc3)C[C@@H]21 [compound 114, 5-(5-((1R,3s,5S,6r)-3-(1H-imidazol-1-yl)bicyclo[3.1.0]hexan-6-yl)-1-isopropyl-1H-pyrazol-3-yl)-3-(trifluoromethyl)pyridin-2-amine] | 15.1
CC(C)n1nc(-c2cnc(N)c(C(F)(F)F)c2)cc1[C@H]1[C@@H]2C[C@@H](N(C)CCS(C)(=O)=O)C[C@@H]21 [compound 7, 5-(1-isopropyl-5-((1R,3s,5S,6r)-3-(methyl(2-(methylsulfonyl)ethyl)amino)bicyclo[3.1.0]hexan-6-yl)-1H-pyrazol-3-yl)-3-(trifluoromethyl)pyridin-2-amine] | 4.63
COC1CCN([C@H]2C[C@@H]3[C@H](C2)[C@H]3c2cc(-c3cnc(N)c(OC(F)(F)F)c3)nn2C(C)C)CC1 [compound 248, 5-(1-isopropyl-5-((1R,3r,5S,6r)-3-(4-methoxypiperidin-1-yl)bicyclo[3.1.0]hexan-6-yl)-1H-pyrazol-3-yl)-3-(trifluoromethoxy) pyridin-2-amine] | 2.8
CC(C)n1nc(-c2cnc(N)c(C(F)(F)F)c2)cc1[C@H]1[C@@H]2C[C@@H](OC3COC3)C[C@@H]21 [compound 294, 5-(1-isopropyl-5-((1R,3s,5S,6r)-3-(oxetan-3-yloxy)bicyclo[3.1.0]hexan-6-yl)-1H-pyrazol-3-yl)-3-(trifluoromethyl)pyridin-2-amine] | 8.9
CC(C)n1nc(-c2cnc(N)c(OC(F)(F)F)c2)cc1[C@H]1[C@@H]2C[C@H](N3C[C@H]4C[C@@H]3CO4)C[C@@H]21 [compound 56, 5-(5-((1R,3r,5S,6R)-3-((1R,4R)-2-oxa-5-azabicyclo[2.2.1]heptan-5-yl)bicyclo[3.1.0]hexan-6-yl)-1-isopropyl-1H-pyrazol-3-yl)-3-(trifluoromethoxy)pyridin-2-amine] | 4.81
CC(C)n1nc(-c2cnc(N)c(OC(F)F)c2)cc1[C@H]1[C@@H]2C[C@@H](N3CCOCC(F)(F)C3)C[C@@H]21 [compound 183, 5-(5-((1R,3s,5S,6r)-3-(6,6-difluoro-1,4-oxazepan-4-yl)bicyclo [3.1.0]hexan-6-yl)-1-isopropyl-1H-pyrazol-3-yl)-3-(difluoro-methoxy)pyridin-2-amine] | 4.5
CC(C)n1nc(-c2cnc(N)c(OC(F)F)c2)cc1[C@H]1[C@@H]2CC(C)(O)C[C@@H]21 (stereo partly drawn) [compound 105, (1R,5S,6r)-6-(3-(6-amino-5-(difluoro-methoxy)pyridin-3-yl)-1-isopropyl-1H-pyrazol-5-yl)-3-methyl-bicyclo[3.1.0]hexan-3-ol] | 18.3
CC(C)n1nc(-c2cnc(N)c(OC(F)F)c2)cc1C1[C@H]2CC(N3CCOCC(F)C3)C[C@@H]12 (single isomer, unassigned) [compound 175] | 5.5
COCCO[C@@H]1C[C@@H]2[C@H](C1)[C@H]2c1cc(-c2cnc(N)c(C(F)(F)F)c2)nn1C(C)C [compound 275, 5-(1-isopropyl-5-((1R,3s,5S,6r)-3-(2-methoxyethoxy)bicyclo [3.1.0]hexan-6-yl)-1H-pyrazol-3-yl)-3-(trifluoromethyl)pyridin-2-amine] | 4.7
CC(C)n1nc(-c2cnc(N)c(C(F)(F)F)c2)cc1[C@H]1[C@@H]2C[C@H](N3CCOC[C@H]3C)C[C@@H]21 [compound 45, 5-(1-isopropyl-5-((1R,3r,5S,6R)-3-((R)-3-methylmorpholino)bicyclo[3.1.0]hexan-6-yl)-1H-pyrazol-3-yl)-3-(trifluoromethyl) pyridin-2-amine] | 3.3
CC(C)n1nc(-c2cnc(N)c(C(F)(F)F)c2)cc1[C@H]1[C@@H]2C[C@@]3(CCN3CC(F)F)C[C@@H]21 [compound 148, 5-(5-((1′R,2r,5′S,6′r)-1-(2,2-difluoro-ethyl)spiro[azetidine-2,3′-bicyclo[3.1.0]hexan]-6-yl)-1-isopropyl-1H-pyrazol-3-yl)-3-(trifluoro-methyl)pyridin-2-amine] | 8.9
CC(C)n1nc(-c2cnc3ccn([C@H](C)c4ccccn4)c3c2)cc1[C@H]1[C@@H]2C[C@@H](N3CCOCC3)C[C@@H]21 [compound 25, 4-((1R,3S,5S,6r)-6-(1-isopropyl-3-(1-((R)-1-(pyridin-2-yl)ethyl)-1H-pyrrolo[3,2-b]pyridin-6-yl)-1H-pyrazol-5-yl)bicyclo[3.1.0]hexan-3-yl)morpholine] | 70.6
CC(C)n1nc(-c2cnc(N)c(OC(F)F)c2)cc1[C@H]1[C@@H]2CC(N3CCOCC(F)C3)C[C@@H]21 (single isomer, unassigned) [compound 169] | 4.1
CC(C)n1nc(-c2cnc(N)c(OC(F)(F)F)c2)cc1[C@H]1[C@@H]2C[C@@H](N3CC4(CN(C)CCO4)C3)C[C@@H]21 [compound 219, 5-(1-isopropyl-5-((1R,3s,5S,6r)-3-(8-methyl-5-oxa-2,8-diazaspiro [3.5]nonan-2-yl)bicyclo[3.1.0]hexan-6-yl)-1H-pyrazol-3-yl)-3-(trifluoromethoxy)pyridin-2-amine] | 2.2
CC(C)n1nc(-c2cnc(N)c(C(F)(F)F)c2)cc1[C@H]1[C@@H]2C[C@H](N3CCOCC3)C[C@@H]21 [compound 52, 5-(1-isopropyl-5-((1R,3r,5S,6r)-3-morpholinobicyclo[3.1.0]hexan-6-yl)-1H-pyrazol-3-yl)-3-(trifluoromethyl)pyridin-2-amine] | 3.97

The next molecules have a lower Ki than those just listed; values first:

Ki [nM] | Structure (SMILES)
1.53 | CC(C)n1nc(-c2cnc(N)c(C(F)(F)F)c2)cc1[C@H]1[C@@H]2C[C@H](N3CC(F)C3)C[C@@H]21 [compound 36, 5-(5-((1R,3r,5S,6r)-3-(3-fluoro-azetidin-1-yl)bicyclo[3.1.0]hexan-6-yl)-1-isopropyl-1H-pyrazol-3-yl)-3-(trifluoromethyl)pyridin-2-amine]
1.85 | CC(C)n1nc(-c2cnc(N)c(C(F)(F)F)c2)cc1[C@H]1[C@@H]2C[C@H](N3CCOC[C@H]3C)C[C@@H]21 [compound 46, 5-(1-isopropyl-5-((1R,3s,5S,6R)-3-((R)-3-methylmorpholino)bicyclo[3.1.0]hexan-6-yl)-1H-pyrazol-3-yl)-3-(trifluoromethyl) pyridin-2-amine]
1.5 | CC(C)n1nc(-c2cnc(N)c(OC(F)F)c2)cc1[C@H]1[C@@H]2C[C@H](N3CCCN(C)CC3)C[C@@H]21 [compound 208, 3-(difluoromethoxy)-5-(1-isopropyl-5-((1R,3r,5S,6r)-3-(4-methyl-1,4-diazepan-1-yl)bicyclo[3.1.0]hexan-6-yl)-1H-pyrazol-3-yl) pyridin-2-amine]
1.6 | CC(C)n1nc(-c2cnc(N)c(OC(F)F)c2)cc1[C@H]1[C@@H]2C[C@H](N3CCOCC3)C[C@@H]21 [compound 86, 3-(difluoromethoxy)-5-(1-isopropyl-5-((1R,3r,5S,6r)-3-morpholino-bicyclo[3.1.0]hexan-6-yl)-1H-pyrazol-3-yl)pyridin-2-amine]
1.1 | CC(C)n1nc(-c2cnc(N)c(C(F)(F)F)c2)cc1[C@H]1[C@@H]2C[C@@H](N3CCN(CC(F)F)CC3)C[C@@H]21 [compound 266]
2.1 | CC(C)n1nc(-c2cnc(N)c(OC(F)(F)F)c2)cc1[C@H]1[C@@H]2C[C@H](N3CC4(CN(C)CCO4)C3)C[C@@H]21 [compound 220, 5-(1-isopropyl-5-((1R,3r,5S,6r)-3-(8-methyl-5-oxa-2,8-diazaspiro [3.5]nonan-2-yl)bicyclo[3.1.0]hexan-6-yl)-1H-pyrazol-3-yl)-3-(trifluoromethoxy)pyridin-2-amine]
0.763 | CC(C)n1nc(-c2cnc(N)c(OC(F)(F)F)c2)cc1[C@H]1[C@@H]2C[C@H](N3CCN(C)CC3)C[C@@H]21 [compound 64, 5-(1-isopropyl-5-((1R,3r,5S,6r)-3-(4-methylpiperazin-1-yl)bicyclo [3.1.0]hexan-6-yl)-1H-pyrazol-3-yl)-3-(trifluoromethoxy) pyridin-2-amine]
0.79 | CC(C)n1nc(-c2cnc(N)c(C(F)(F)F)c2)cc1[C@H]1[C@@H]2C[C@@H](N3CCCOCC3)C[C@@H]21 [compound 102, 5-(5-((1R,3s,5S,6r)-3-(1,4-oxazepan-4-yl)bicyclo[3.1.0]hexan-6-yl)-1-isopropyl-1H-pyrazol-3-yl)-3-(trifluoromethyl)pyridin-2-amine]
0.44 | CC(C)n1nc(-c2cnc(N)c(OC(F)(F)F)c2)cc1[C@H]1[C@@H]2C[C@H](N3CCCOCC3)C[C@@H]21 [compound 101, 5-(5-((1R,3r,5S,6r)-3-(1,4-oxazepan-4-yl)bicyclo[3.1.0]hexan-6-yl)-1-isopropyl-1H-pyrazol-3-yl)-3-(trifluoromethoxy)pyridin-2-amine]
